Test results published in patent US20060116328A1, “Combined use of carnosinase inhibitor with l-carnosines and composition” (priority 2003, published 2006).
Peptide text beside a SMILES is read from it.

Legend:
tissue carnosinase = molecular target: T1, tissue carnosinase (Rattus norvegicus, UniProt Q6Q0N1); assay: Hydrolysis of L-carnosine and related substance with tissue carnosinase in the absence or presence of a carnosinase inhibitor; assay type: biochemical, male Hairless rats; details: pH 7.0, 37° C.
T1 construct: Partially purified tissue carnosinase as a solution in 0.1M phosphate buffer (pH 7.0) is prepared from the crude brain extracts; from tissue; host or cells: brain of male Hairless rats
T1 sequence (Q6Q0N1 1-475): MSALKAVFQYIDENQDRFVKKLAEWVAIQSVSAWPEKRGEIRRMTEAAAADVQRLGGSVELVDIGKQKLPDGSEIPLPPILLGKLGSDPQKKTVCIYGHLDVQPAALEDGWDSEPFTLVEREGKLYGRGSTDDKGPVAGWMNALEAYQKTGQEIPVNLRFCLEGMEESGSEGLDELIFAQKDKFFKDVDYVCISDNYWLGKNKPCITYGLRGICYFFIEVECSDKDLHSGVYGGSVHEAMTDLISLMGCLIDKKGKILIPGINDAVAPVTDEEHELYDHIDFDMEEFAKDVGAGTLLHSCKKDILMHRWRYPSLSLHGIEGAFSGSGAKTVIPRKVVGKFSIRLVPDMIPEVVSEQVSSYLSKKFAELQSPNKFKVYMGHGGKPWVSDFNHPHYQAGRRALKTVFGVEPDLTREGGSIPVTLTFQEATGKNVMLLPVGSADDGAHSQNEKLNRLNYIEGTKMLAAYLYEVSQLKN
Procedure: Partially purified tissue carnosinase as a solution in 0.1M phosphate buffer (pH 7.0) is prepared from the crude brain extracts of male Hairless rats by a reported procedure (Y. Courbebaisse, G. Langrand, J -F. Nicolay and M. A. Babizhayev, Proceeding of 19th IFSCC Congress, Australia, Vol. 3, 1996, p. 1-12; M. A. Babizhayev et al., Letters in Peptide Science, Vol. 5, 163, 1998). A solution of the substrate (450 μl) in 0.1M phosphate buffer (pH 7.0) is incubated with the diluted enzyme solution (50 μl) at 37° C. for 120 min. in the absence or in the presence of a carnosinase inhibitor. Portions of the reaction mixture are taken at the time points of 0, 2, 3, 4, 5, 10, 20, 40, 60 min and dansylated with dansyl chloride (5 mg of dansyl chloride/ml of acetonitrile solution) at 50° C. for 15 min. The each portion is subjected to HPLC analysis on a column C18DB using a gradient method (A=0.02N acetic acid/acetonitrile, 90/10; B=acetonitrile). The rate of the peptide hydrolysis is determined by following the decrease of the area under the curve (AUC) of the dansylated substrate.

skin = assay: Cosmetic liposome composition applied on the skin of elderly volunteers; assay type: in vivo, human; details: 10 elderly subjects, applied on the skin twice daily for 15 days
cells = details: L-carnosine supplementation of tissue cultures; cited from earlier work
mice = mice supplemented with L-carnosine; cited from earlier work
solid tumor cell lines = assay: Growth inhibition and induction of apoptosis in solid tumor cell lines; assay type: cell-based
Procedure: The experimental design, details of experimental procedure and human leukemia cell lines were essentially the same as those reported by Sekine et al. (Int. J. Cancer, Vol. 94, 485, 2001). The carnosinase inhibitor bestatine was used in the range of 5-15 μg/ml of concentration and the concentration of the applied carnosine varied from 5-20 mM . […] Our study was performed with this combination to examine whether bestatin+carnosine can also induce apoptosis in solid tumor cell lines.

[1] = substrate L-Carnosine 0.08 mM + inhibitor 0.5 mM

NCC(=O)N[C@@H](Cc1cnc[nH]1)C(=O)O [Gly-L-His] (H-Gly-His-OH)
rate of hydrolysis (tissue carnosinase; [1]): 6e-06 mol/min

NCCC(=O)N[C@@H](Cc1c[nH]cn1)C(=O)O [L-Carnosine, β-alanyl-L-histidine]
rate of hydrolysis (tissue carnosinase; L-Carnosine 0.08 mM + L-carnosine 0.3 mM (blank test)): 7.8e-05 mol/min
rate of hydrolysis (tissue carnosinase; substrate L-Carnosine 0.08 mM alone (blank test)): 3.4e-05 mol/min
rate of hydrolysis (tissue carnosinase; substrate L-Carnosine 0.3 mM alone (blank test)): 7.8e-05 mol/min
skin pigmentation (skin): only a little whitening activity
increase in cellular life span (cells): 67%
average life span longer than non-treated mice (mice): 20%

O=C(O)[C@H](Cc1cnc[nH]1)NC(=O)[C@@H]1CCCN1 [L-Pro-L-His]
rate of hydrolysis (tissue carnosinase; [1]): 9e-06 mol/min

CC(=O)NCCC(=O)N[C@@H](Cc1cnc[nH]1)C(=O)O [N-Acetyl-L-carnosine, N-acetyl-L-carnosine]
rate of hydrolysis (tissue carnosinase; substrate N-Acetyl-L-carnosine 0.08 mM alone (blank test)): 1e-06 mol/min

CC(=O)NCCC(=O)O [N-acetyl-β-alanine]
rate of hydrolysis (tissue carnosinase; [1]): 3e-06 mol/min
rate of hydrolysis (tissue carnosinase; substrate N-Acetyl-L-carnosine 0.08 mM + inhibitor 0.5 mM): 3.5e-07 mol/min

COC(=O)[C@H](CC(C)C)NC(=O)[C@@H](O)[C@H](N)Cc1ccccc1 [bestatin methyl ester]
cell growth (solid tumor cell lines; used with L-carnosine, compared with L-carnosine only): inhibited cell growth more clearly than the case where only L-carnosine is used

CC(C)C[C@H](NC(=O)[C@@H](O)[C@H](N)Cc1ccccc1)C(=O)O [bestatine, bestatin, reference compound]
rate of hydrolysis (tissue carnosinase; substrate L-Carnosine 0.08 mM + inhibitor 0.5 nM): 2e-06 mol/min
growth inhibition and induction of apoptosis (solid tumor cell lines; bestatine 5-15 μg/ml, carnosine 5-20 mM): neither direct growth inhibition nor induction of apoptosis

NCCC(=O)O [β-alanine]
rate of hydrolysis (tissue carnosinase; [1]): 5e-06 mol/min
rate of hydrolysis (tissue carnosinase; substrate L-Carnosine 0.3 mM + inhibitor 0.5 mM): 5.4e-05 mol/min

NCCCC(=O)NCCc1c[nH]cn1 [γ-aminobutyryl-histamine, γ-aminobutyrylhistamine]
rate of hydrolysis (tissue carnosinase; [1]): 4.5e-06 mol/min
